The text below walks through data of patent US20100222396A1 (Novartis AG, priority 2009, published 2010).

The target of test [1] is T1, human orexin 1 receptor (hOx1R) (Homo sapiens, UniProt O43613).
T1 construct: expressed in transfected cells
T1 sequence (O43613 1-425): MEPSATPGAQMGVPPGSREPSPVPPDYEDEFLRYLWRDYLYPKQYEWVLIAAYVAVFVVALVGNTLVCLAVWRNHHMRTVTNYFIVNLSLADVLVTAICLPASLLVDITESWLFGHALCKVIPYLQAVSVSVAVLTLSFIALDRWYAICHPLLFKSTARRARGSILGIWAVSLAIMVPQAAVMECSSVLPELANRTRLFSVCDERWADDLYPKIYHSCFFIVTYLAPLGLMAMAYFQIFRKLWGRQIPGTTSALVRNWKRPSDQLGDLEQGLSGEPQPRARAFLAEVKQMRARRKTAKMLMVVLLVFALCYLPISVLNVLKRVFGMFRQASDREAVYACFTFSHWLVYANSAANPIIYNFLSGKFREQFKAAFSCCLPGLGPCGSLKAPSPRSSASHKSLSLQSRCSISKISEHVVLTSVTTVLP
In words: Calcium accumulation in cells (FLIPR), antagonism of orexin A, hOx1R. The format is cell-based. To be noted: for inhibition at 10 µM: measured at a concentration of 10 μM of compound (cells marked ^a); for Kd: cells expressing human orexin 1 receptor, IC50 vs orexin A converted by Cheng and Prusoff correction. An outline of the steps:
(§1)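 Serum-starved receptor-expressing cells were loaded with Fluo-4-AM (2 μM) plus probenecid (0.1 mM) in HEPES buffer, pH 7.4, with 1% BSA, and Ca2+ fluorescence was read on FLIPR. Compounds (10^−9–10^−5 M) were added first, and orexin A was added one hour later to measure antagonism.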

The target in test [2] is T2, human orexin 2 receptor (hOx2R) (Homo sapiens, UniProt O43614).
T2 construct: expressed in transfected cells
T2 sequence (O43614 1-444): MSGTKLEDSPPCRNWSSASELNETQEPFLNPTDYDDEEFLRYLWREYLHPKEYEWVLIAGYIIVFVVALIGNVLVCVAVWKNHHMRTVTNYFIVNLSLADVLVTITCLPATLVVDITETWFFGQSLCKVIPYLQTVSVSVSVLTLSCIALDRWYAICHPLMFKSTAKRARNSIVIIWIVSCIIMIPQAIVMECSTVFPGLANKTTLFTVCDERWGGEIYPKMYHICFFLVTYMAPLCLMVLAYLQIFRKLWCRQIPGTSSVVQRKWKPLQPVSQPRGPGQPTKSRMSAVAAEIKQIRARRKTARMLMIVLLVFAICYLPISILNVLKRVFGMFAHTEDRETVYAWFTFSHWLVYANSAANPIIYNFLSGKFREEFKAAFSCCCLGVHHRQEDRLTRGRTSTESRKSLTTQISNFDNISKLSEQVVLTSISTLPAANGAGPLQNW
In words: Calcium accumulation in cells (FLIPR), antagonism of orexin A, hOx2R. The format is cell-based. As to conditions: for Kd: cells expressing human orexin 2 receptor, IC50 vs orexin A converted by Cheng and Prusoff correction; for inhibition at 10 µM: measured at a concentration of 10 μM of compound (cells marked ^a). The essentials: as §1

Test [3] addresses T1, human orexin 1 receptor (hOx1R). In words: Radioligand binding assay ([125I]orexin A competition), hOx1R. To be noted: CHO or HEK cell membranes, 1 h room temperature. An outline of the steps: (§2)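 Membranes from CHO or HEK cells expressing the human receptor, incubated 1 h at room temperature with […] [125I]orexin A and compound in HEPES pH 7.5 buffer with BSA, MgCl2, CaCl2 and tween.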

For test [4], the target named is T2, human orexin 2 receptor (hOx2R). The experiment in a line: Radioligand binding assay ([125I]orexin A competition), hOx2R. To be noted: CHO or HEK cell membranes, 1 h room temperature. An outline of the steps:
as §2

As usually defined, the inhibition is the drop in the measured response relative to a control, in per cent. By Kd is commonly meant the free concentration of one partner at which half of the binding sites on the other are occupied at equilibrium, for simple one-to-one binding.

`CN(C(=O)c1ccccc1)[C@H](CCNC(=O)c1cccc2c1OCC2)Cc1ccccc1` [Example 67, 2,3-Dihydro-benzofuran-7-carboxylic acid [(S)-3-(benzoyl-methyl-amino)-4-phenyl-butyl]-amide]: in test [1], the inhibition at 10 µM was found to be 33%. For the same molecule, the equilibrium dissociation constant (Kd) in test [2] turned out to be 180 nM; in test [3], 1080 nM; in test [4], 114 nM.

Consider “1-Methyl-1H-pyrrole-2-carboxylic acid {(8)-3-[(3,5-difluoro-benzoyl)-methyl-amino]-4-phenyl-butyl}-amide [Example 118]”, for which the Kd was found to be 1070 nM in test [1], 55 nM in test [2], 977 nM in test [3] and 76 nM in test [4].

Take `COc1cc(F)cc(C(=O)N(C)[C@H](CCNC(=O)c2cccn2C)Cc2ccccc2)c1` [Example 105, 1-Methyl-1H-pyrrole-2-carboxylic acid {(S)-3-[(3-fluoro-5-methoxy-benzoyl)-methyl-amino]-4-phenyl-butyl}-amide]: the dissociation constant (Kd) in test [1] was determined as 811 nM; in test [2] it was 7 nM; in test [3] it was 286 nM; in test [4], 12 nM.

Consider `CN(C(=O)c1ccc2c(c1)OCC2)[C@H](CCNC(=O)c1cccn1C)Cc1ccccc1` [Example 117, 1-Methyl-1H-pyrrole-2-carboxylic acid {(S)-3-[(2,3-dihydro-benzofuran-6-carbonyl)-methyl-amino]-4-phenyl-butyl}-amide], for which the Kd in test [1] was 987 nM; in test [2], 65 nM; in test [3] it was 444 nM; in test [4], 81 nM.

Take `COc1cccc(C(=O)N(C)[C@H](CCNC(=O)c2nc3ccccc3n2C)Cc2ccccc2)c1` [Example 79, 1-Methyl-1H-benzoimidazole-2-carboxylic acid {(S)-3-[(3-methoxy-benzoyl)-methyl-amino]-4-phenyl-butyl}-amide]: the dissociation constant Kd in test [1] stood at 225 nM; in test [2], 12 nM; in test [3] it was 73 nM; in test [4] it was 30 nM.

Consider `CN(C(=O)c1ccc2ccccc2c1)[C@H](CCNC(=O)c1nc2ccccc2n1C)Cc1ccc(F)cc1` [Example 57, 1-Methyl-1H-benzoimidazole-2-carboxylic acid {(S)-4-(4-fluoro-phenyl)-3-[methyl-(naphthalene-2-carbonyl)-amino]-butyl}-amide], for which the Kd in test [1] turned out to be 12 nM; in test [2] it was 26 nM; in test [3], 443 nM; in test [4], 2850 nM.

In the case of `CN(C(=O)c1ccccc1)[C@H](CCNC(=O)c1ccc2c(c1)OCO2)Cc1ccccc1` [Example 93, Benzo[1,3]dioxole-5-carboxylic acid [(S)-3-(benzoyl-methyl-amino)-4-phenyl-butyl]-amide], in test [1], the inhibition at 10 µM is 30%. In addition, the values for the Kd in test [2], in test [3] and in test [4] were 164 nM, 3110 nM and 114 nM, respectively.

With `CN(C(=O)c1cc(C(F)(F)F)cc(C(F)(F)F)c1)C(CCNC(=O)c1ccccc1)Cc1ccccc1` (stereo not shown) [Example 17, N-(3-Benzoylamino-1-benzyl-propyl)-N-methyl-3,5-bis-trifluoromethyl-benzamide], the inhibition at 10 µM in test [1] is 36%. Besides, the results for the Kd in test [2], in test [3] and in test [4] were 41 nM, 8790 nM and 107 nM, respectively.

Consider `CN(C(=O)c1cccc2c1OCO2)[C@H](CCNC(=O)c1nc2ccccc2n1C)Cc1ccc(F)cc1` [Example 56, 1-Methyl-1H-benzoimidazole-2-carboxylic acid [(S)-3-[(benzo[1,3]dioxole-4-carbonyl)-methyl-amino]-4-(4-fluoro-phenyl)-butyl]-amide], for which the inhibition at 10 µM is 1% in test [1] and 35% in test [2]. The Kd in test [3] is over 10000 nM; in test [4] it was 2720 nM.

For the molecule `CN(C(=O)c1ccccc1)[C@H](CCNC(=O)c1ccnc2ccccc12)Cc1ccccc1` [Example 2, Quinoline-4-carboxylic acid [(S)-3-(benzoyl-methyl-amino)-4-phenyl-butyl]-amide], the inhibition at 10 µM came to 4% in test [1] and 19% in test [2]. Besides, the dissociation constant Kd was over 10000 nM in test [3] and 4970 nM in test [4].

Turning to `CCOc1cccc(C(=O)N(C)[C@H](CCNC(=O)c2cccn2C)Cc2ccccc2)c1` [Example 121, 1-Methyl-1H-pyrrole-2-carboxylic acid {(S)-3-[(3-ethoxy-benzoyl)-methyl-amino]-4-phenyl-butyl}-amide], the dissociation constant (Kd) was 696 nM in test [1], 2 nM in test [2], 206 nM in test [3] and 8 nM in test [4].

`COc1ccc(C(=O)N(C)[C@H](CCNC(=O)c2ccccn2)Cc2ccccc2)cc1OC` [Example 9, Pyridine-2-carboxylic acid {(S)-3-[(3,4-dimethoxy-benzoyl)-methyl-amino]-4-phenyl-butyl}-amide]: the Kd in test [1] stood at 1400 nM; in test [2], 145 nM; in test [3] it was 474 nM; in test [4] it was 46 nM.

For the molecule `CN(C(=O)c1ccccc1)[C@@H](Cc1ccccc1)[C@@H](O)CNC(=O)c1ccccn1` [Example 95, Pyridine-2-carboxylic acid [(2S,3S)-3-(benzoyl-methyl-amino)-2-hydroxy-4-phenyl-butyl]-amide], the Kd came out at 3430 nM in test [1], 140 nM in test [2], 3440 nM in test [3] and 59 nM in test [4].

On to `CN(C(=O)c1ccccc1)[C@@H](CCNC(=O)c1ccccn1)Cc1ccccc1` [Example 68, Pyridine-2-carboxylic acid [(R)-3-(benzoyl-methyl-amino)-4-phenyl-butyl]-amide], for which the Kd in test [1] was 3580 nM; in test [2] it was 2370 nM; in test [3] it was over 10000 nM; in test [4] it was 7530 nM.

Regarding `Cc1cc(C)cc(C(=O)N(C)[C@H](CCNC(=O)c2cccn2C)Cc2ccccc2)c1` [Example 125, 1-Methyl-1H-pyrrole-2-carboxylic acid {(S)-3-[(3,5-dimethyl-benzoyl)-methyl-amino]-4-phenyl-butyl}-amide], the Kd in test [1] worked out at 230 nM; in test [2], 2 nM; in test [3], 176 nM; in test [4], 7 nM.

For the molecule `Cc1nc2sccn2c1C(=O)NCC[C@H](Cc1ccccc1)N(C)C(=O)c1ccc2c(c1)OCO2` [Example 82, 6-Methyl-imidazo[2,1-b]thiazole-5-carboxylic acid {(S)-3-[(benzo[1,3]dioxole-5-carbonyl)-methyl-amino]-4-phenyl-butyl}-amide], the Kd in test [1] is 963 nM; in test [2] it was 2 nM; in test [3] it was 163 nM; in test [4], 12 nM.

As for `CN(C(=O)c1ccc2c(c1)OCO2)[C@H](CCNC(=O)c1cc2ccccc2n1C)Cc1ccccc1` [Example 75, 1-Methyl-1H-indole-2-carboxylic acid {(S)-3-[(benzo[1,3]dioxole-5-carbonyl)-methyl-amino]-4-phenyl-butyl}-amide], the Kd was found to be 267 nM in test [1], 31 nM in test [2], 705 nM in test [3] and 473 nM in test [4].

Turning to `CCOc1cc(OCC)cc(C(=O)N(C)[C@H](CCNC(=O)c2cccn2C)Cc2ccccc2)c1` [Example 122, 1-Methyl-1H-pyrrole-2-carboxylic acid {(S)-3-[(3,5-diethoxy-benzoyl)-methyl-amino]-4-phenyl-butyl}-amide], the equilibrium dissociation constant (Kd) in test [1] stood at 773 nM; in test [2], 24 nM; in test [3], 333 nM; in test [4] it was 21 nM.

Take `CN(C(=O)c1ccc(C(F)(F)F)c(C(F)(F)F)c1)[C@H](CCNC(=O)c1ccccn1)Cc1ccccc1` [Example 77, Pyridine-2-carboxylic acid {(8)-3-[(3,4-bis-trifluoromethyl-benzoyl)-methyl-amino]-4-phenyl-butyl}-amide]: in test [1], the inhibition at 10 µM is 25%. The results for the dissociation constant Kd in test [2], in test [3] and in test [4] were 581 nM, 8420 nM and 3710 nM, respectively.
